Reference: patent publication US9562035B2, “Benzamide derivative useful as FASN inhibitors for the treatment of cancer” (Janssen Pharmaceutica NV, priority 2013, dated 2017)

Assays:
[1] = target: T1, FASN Keto-reductase Domain (Homo sapiens, UniProt P49327); test: Fatty Acid Synthase Keto-Reductase Domain (FASN KR) Inhibition; assay type: biochemical; conditions: mean where tested more than once; read-out: FASN K-R Domain pIC50 (converted)
T1 construct: 10 μL hFASN enzyme (full length, 300 ng, purified in house) and 360 μM NADPH; made in house
T1 sequence (P49327 whole entry, the tested form may be a part): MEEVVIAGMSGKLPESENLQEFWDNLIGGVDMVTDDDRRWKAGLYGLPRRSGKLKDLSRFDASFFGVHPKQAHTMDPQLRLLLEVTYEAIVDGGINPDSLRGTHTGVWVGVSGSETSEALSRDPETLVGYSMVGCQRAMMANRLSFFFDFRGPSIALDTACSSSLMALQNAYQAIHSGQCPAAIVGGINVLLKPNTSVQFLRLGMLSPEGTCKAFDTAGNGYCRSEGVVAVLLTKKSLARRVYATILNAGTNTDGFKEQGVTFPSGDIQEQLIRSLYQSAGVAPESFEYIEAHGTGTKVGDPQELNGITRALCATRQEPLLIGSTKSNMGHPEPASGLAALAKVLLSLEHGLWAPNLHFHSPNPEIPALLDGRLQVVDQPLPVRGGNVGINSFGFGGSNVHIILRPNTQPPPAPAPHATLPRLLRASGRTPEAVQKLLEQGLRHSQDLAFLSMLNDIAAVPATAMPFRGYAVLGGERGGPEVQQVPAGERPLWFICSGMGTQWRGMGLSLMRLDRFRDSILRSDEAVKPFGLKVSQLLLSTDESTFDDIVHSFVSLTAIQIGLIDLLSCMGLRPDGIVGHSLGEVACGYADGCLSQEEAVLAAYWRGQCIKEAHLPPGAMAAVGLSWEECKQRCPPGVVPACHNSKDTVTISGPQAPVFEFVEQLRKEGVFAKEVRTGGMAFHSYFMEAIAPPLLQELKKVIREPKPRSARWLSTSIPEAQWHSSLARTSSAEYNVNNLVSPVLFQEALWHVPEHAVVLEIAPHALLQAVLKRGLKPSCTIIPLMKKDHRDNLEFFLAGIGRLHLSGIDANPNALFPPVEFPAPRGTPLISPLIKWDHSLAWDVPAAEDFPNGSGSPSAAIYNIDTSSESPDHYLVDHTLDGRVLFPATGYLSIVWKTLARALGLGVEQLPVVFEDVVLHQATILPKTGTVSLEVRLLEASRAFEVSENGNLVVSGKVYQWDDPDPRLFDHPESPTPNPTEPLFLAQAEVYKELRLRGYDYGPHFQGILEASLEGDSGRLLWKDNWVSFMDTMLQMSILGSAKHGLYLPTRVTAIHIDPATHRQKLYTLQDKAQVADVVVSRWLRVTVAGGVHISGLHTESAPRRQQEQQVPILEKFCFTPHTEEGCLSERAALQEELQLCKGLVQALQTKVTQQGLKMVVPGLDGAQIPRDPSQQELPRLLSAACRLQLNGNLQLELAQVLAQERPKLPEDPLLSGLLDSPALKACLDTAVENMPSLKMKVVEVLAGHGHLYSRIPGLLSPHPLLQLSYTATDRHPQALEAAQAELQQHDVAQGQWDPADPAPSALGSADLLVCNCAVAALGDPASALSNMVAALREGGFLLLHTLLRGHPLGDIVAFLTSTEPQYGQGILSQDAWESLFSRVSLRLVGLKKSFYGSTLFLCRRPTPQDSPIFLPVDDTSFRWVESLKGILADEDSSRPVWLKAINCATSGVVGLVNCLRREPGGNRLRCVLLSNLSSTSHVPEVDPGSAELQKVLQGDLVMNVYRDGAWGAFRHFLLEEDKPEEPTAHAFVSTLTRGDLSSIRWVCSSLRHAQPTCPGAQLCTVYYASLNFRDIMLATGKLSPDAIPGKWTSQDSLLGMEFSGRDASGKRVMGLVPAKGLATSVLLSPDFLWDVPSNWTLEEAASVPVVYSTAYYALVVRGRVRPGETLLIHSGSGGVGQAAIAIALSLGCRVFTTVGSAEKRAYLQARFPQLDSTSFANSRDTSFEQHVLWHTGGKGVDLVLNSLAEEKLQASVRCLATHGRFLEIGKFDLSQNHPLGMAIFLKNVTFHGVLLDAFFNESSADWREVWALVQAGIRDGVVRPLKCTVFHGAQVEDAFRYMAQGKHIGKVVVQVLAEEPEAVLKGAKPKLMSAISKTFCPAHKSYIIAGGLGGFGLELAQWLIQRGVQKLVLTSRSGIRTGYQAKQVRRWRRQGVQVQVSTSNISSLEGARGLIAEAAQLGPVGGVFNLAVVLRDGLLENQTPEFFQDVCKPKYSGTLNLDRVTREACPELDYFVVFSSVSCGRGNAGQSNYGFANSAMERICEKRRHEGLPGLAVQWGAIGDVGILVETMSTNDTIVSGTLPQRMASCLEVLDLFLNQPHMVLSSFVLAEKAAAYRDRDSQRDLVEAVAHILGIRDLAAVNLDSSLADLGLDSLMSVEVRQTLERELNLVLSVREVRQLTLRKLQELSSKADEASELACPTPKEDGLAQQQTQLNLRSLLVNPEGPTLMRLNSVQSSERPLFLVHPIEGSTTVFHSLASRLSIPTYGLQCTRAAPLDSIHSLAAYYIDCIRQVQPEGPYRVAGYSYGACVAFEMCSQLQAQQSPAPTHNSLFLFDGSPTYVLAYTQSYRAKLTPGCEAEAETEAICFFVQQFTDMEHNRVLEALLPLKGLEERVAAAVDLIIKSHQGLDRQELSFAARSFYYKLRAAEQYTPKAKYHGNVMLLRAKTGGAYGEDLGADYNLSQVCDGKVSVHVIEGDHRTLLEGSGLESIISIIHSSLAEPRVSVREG
In short: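 Full-length human FASN (300 ng) in 100 mM KH2PO4 pH 7.5 with 360 μM NADPH and 180 mM ethyl acetoacetate (stock); A340 decrease read over 20 min at room temperature.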

A2780 ovarian cells [2] = test: A2780 Ovarian Cell Proliferation Assay in Lipid Reduced Medium, without Palmitate; assay type: cell-based; conditions: Homo sapiens, A2780; lipid reduced medium, without palmitate, 96 h, MTT; read-out: Proliferation A2780 w/o Palmitate pIC50 (converted)
Protocol: (§1) The biological assays described below correspond to comparative assays for ovarian cell proliferation. […] Compounds active in the absence of palmitate would not be expected to be active in the control.
(§2) 2500 cells were seeded in a 96-well clear well plate in 200 μL RPMI1640 with 10% Fetal Calf Serum (Hyclone), and incubated at 37° C., 5% CO2. Blanks were wells without cells. The next day the culture medium was aspirated and replaced by 160 μL culture medium with 10% Lipid-Reduced Serum (LRS, Hyclone). 20 μL test compound (at concentrations of 30 μM, 10 μM, 3 μM, 1 μM, 0.30 μM, 0.10 μM, 0.03 μM and 0.01 μM)/DMSO dilution followed by 20 μL ethanol-BSA solution were added to a final concentrations of 0.2% DMSO, 0.2% fatty-acid-free BSA, 0.25% ethanol. After 96 h incubation an MTT assay was performed. The absorbance was measured at 544 nm on a SPECTRAMAX.
Raw data generated by the instrument were normalized to % Controlmin values, which were calculated as: % Controlmin=100*(x−mLC)/(mHC−mLC)
where mLC and mHC were the means of the low control wells and high control wells on the plate, after manual exclusion of outliers. A plot of Controlmin versus test compound concentration was fitted to a 4-parameter logistic curve using a non-linear least squares regression method. From the plot, an IC50 (concentration at which 50% inhibition is achieved) was calculated. pIC50 values were calculated as −log(IC50), when IC50 is expressed in molar units.
(§3) Representative compounds of the present invention were tested according to the procedure as described in Biological Example 3 above, with results as listed in Table BIO-3, below.

A2780 ovarian cells [3] = test: A2780 Ovarian Cell Proliferation Assay in Lipid Reduced Medium, with Palmitate (control); assay type: cell-based; conditions: Homo sapiens, A2780; lipid reduced medium, 25 μM palmitate, 96 h, MTT; read-out: Proliferation A2780 with Palmitate pIC50 (converted)
Protocol: as §1
as §2, with “palmitate-BSA” for “ethanol-BSA”, “DMSO, 25 μM palmitate (Sigma, P0500, 10 mM stock solution in ethanol)” for “DMSO,”, “incubation,” for “incubation”
A best fit curve was fitted by a minimum sum of squares method, plotting Controlmin versus test compound concentration. From the plot, an IC50 (concentration at which 50% inhibition is achieved) was calculated. pIC50 values, presented in the Table below, were calculated as −log(IC50).
as §3

[4] = target: T2, hFASN enzyme (full length) (Homo sapiens, UniProt P49327); test: Fatty Acid Synthase (FASN) Inhibition Scintillation Proximity Assay; assay type: biochemical; conditions: for IC50: mean where tested more than once, ~ = standard error of pIC50 larger than 0.5; for inhibition at 10 µM: read-out: FASN % Effect @1E−05M
T2 construct: 10 μL hFASN enzyme (full length, 300 ng, purified in house); made in house
T2 sequence (P49327 whole entry): as the sequence (P49327 whole entry, the tested form may be a part) above
In short: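 Purified full-length human FASN (300 ng) incubated 60 min at room temperature with NADPH, [3H]-acetyl-CoA and malonyl-CoA in 100 mM KH2PO4 pH 7.5, 1 mM DTT; compound at 30 μM to 0.01 μM. [3H]-palmitate captured by SPA imaging beads; IC50 from 4-parameter fit, reported as pIC50.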

SMILES | IC50 [1] [nM] | IC50 (A2780 ovarian cells [2]) [nM] | IC50 (A2780 ovarian cells [3]) [nM] | IC50 [4] [nM] | inhibition at 10 µM [4] [%]
Cc1ccc(C(=O)N2CC(c3ccc(-c4cnn(C)c4)cc3)C2)cc1NC(=O)c1cccc(C(F)(F)F)n1 [Compound 97, N-(2-methyl-5-(3-(4-(1-methyl-1H-pyrazol-4-yl)phenyl)azetidine-1-carbonyl)phenyl)-6-(trifluoromethyl)picolinamide] | 324 | 501 | 6030 | 170 | 89
Cc1ccc(C(=O)N2CCC(c3ccc(-c4cnn(C)c4)cc3)CC2)cc1NC(=O)C1CCN(Cc2ccccc2)CC1 [Compound 124, 1-benzyl-N-(2-methyl-5-(4-(4-(1-methyl-1H-pyrazol-4-yl)phenyl)piperidine-1-carbonyl)phenyl)piperidine-4-carboxamide] | 81.3 | 33.9 | 5370 | 25.7 | 105
Cc1ccc(C(=O)N2CCC(c3ccc(-n4ccnc4)cc3)CC2)cc1NC(=O)c1ccc(NC(C)C)nc1 [Compound #15, N-(5-(4-(4-(1H-imidazol-1-yl)phenyl)piperidine-1-carbonyl)-2-methylphenyl)-6-(isopropylamino)nicotinamide] | 37.2 | ~47.9 | > 15100 | 22.9 | 109
Cc1ccc(C(=O)N2CCC(c3ccc(-c4cnn(C)c4)cc3)CC2)cc1NC(=O)C1CCN(C(C)C)CC1 [Compound #182, 1-isopropyl-N-(2-methyl-5-(4-(4-(1-methyl-1H-pyrazol-4-yl)phenyl)piperidine-1-carbonyl)phenyl)piperidine-4-carboxamide] | 112 | 45.7 | > 10000 | 27.5 | 111
CCCCC(C)N1CCC(C(=O)Nc2cc(C(=O)N3CCC(c4ccc(-c5cnn(C)c5)cc4)CC3)ccc2C)C1 (stereo not shown) [Compound 197, 1-(hexan-2-yl)-N-(2-methyl-5-(4-(4-(1-methyl-1H-pyrazol-4-yl)phenyl)piperidine-1-carbonyl)phenyl)pyrrolidine-3-carboxamide] | 309 | 288 | > 10000 | 110 | 98
Cc1ccc(C(=O)N2CCC(c3ccc(-n4ccnc4)cc3)C(C)(C)C2)cc1NC(=O)c1ccc(Cl)nc1 (stereo not shown) [Compound #6, N-(5-(4-(4-(1H-imidazol-1-yl)phenyl)-3,3-dimethylpiperidine-1-carbonyl)-2-methylphenyl)-6-chloronicotinamide] | 89.1 | 234 | > 10000 | 61.7 | 104
Cc1ccc(C(=O)N2CC[C@H](c3ccc(-n4ccnc4)cc3)[C@H](C)C2)cc1NC(=O)c1ccc(Cl)nc1 (racemic) [Compound 53, (±)-N-(5-((3S,4S)-4-(4-(1H-imidazol-1-yl)phenyl)-3-methylpiperidine-1-carbonyl)-2-methylphenyl)-6-chloronicotinamide] | 562 | 603 | 8510 | 251 | 101

More lines, now with the values ahead:

IC50 [1] [nM] | IC50 (A2780 ovarian cells [2]) [nM] | IC50 (A2780 ovarian cells [3]) [nM] | IC50 [4] [nM] | inhibition at 10 µM [4] [%] | SMILES
75.9 | ~31.6 | > 10000 | 33.9 | 108 | Cc1ccc(C(=O)N2CCC(c3ccc(-c4cn(C)nc4C)cc3)CC2)cc1NC(=O)c1ccc(NC(C)C)nc1 [Compound 245, N-(5-(4-(4-(1,3-dimethyl-1H-pyrazol-4-yl)phenyl)piperidine-1-carbonyl)-2-methylphenyl)-6-(isopropylamino)nicotinamide]
407 | 162 | > 10000 | 83.2 | 106 | Cc1ccc(C(=O)N2CCC(c3ccc(-c4cnn(C)c4)cc3)CC2)cc1NC(=O)C1CN(C2CCC2)C1 [Compound 240, 1-cyclobutyl-N-(2-methyl-5-(4-(4-(1-methyl-1H-pyrazol-4-yl)phenyl)piperidine-1-carbonyl)phenyl)azetidine-3-carboxamide]
158 | 95.5 | > 10000 | 72.4 | 105 | CCCCN1CC(C(=O)Nc2cc(C(=O)N3CCC(c4ccc(-c5cnn(C)c5)cc4)CC3)ccc2C)C1 [Compound 242, 1-butyl-N-(2-methyl-5-(4-(4-(1-methyl-1H-pyrazol-4-yl)phenyl)piperidine-1-carbonyl)phenyl)azetidine-3-carboxamide]
195 | 331 | > 10000 | 91.2 | 107 | Cc1ccc(C(=O)N2CCC(c3ccc(-c4cnn(C)c4)cc3)CC2)cc1NC(=O)c1ccc(C#N)cc1 [Compound 138, 4-cyano-N-(2-methyl-5-(4-(4-(1-methyl-1H-pyrazol-4-yl)phenyl)piperidine-1-carbonyl)phenyl)benzamide]
107 | 115 | > 10000 | 33.9 | 114 | COc1ccc(C(=O)N2CCC(c3ccc(-c4cnn(C)c4)cc3)CC2)cc1NC(=O)c1ccc(Cl)nc1 [Compound 231, 6-chloro-N-(2-methoxy-5-(4-(4-(1-methyl-1H-pyrazol-4-yl)phenyl)piperidine-1-carbonyl)phenyl)nicotinamide]
2040 | 891 | > 10000 | 617 | 95 | Cc1ccc(C(=O)N2CCC(c3ncc(-c4cnn(C)c4)cn3)CC2)cc1NC(=O)c1ccc(Cl)nc1 [Compound 257, 6-chloro-N-(2-methyl-5-(4-(5-(1-methyl-1H-pyrazol-4-yl)pyrimidin-2-yl)piperidine-1-carbonyl)phenyl)nicotinamide]
53.7 | 18.2 | ~10000 | 42.7 | 103 | Cc1ccc(C(=O)N2CCC(c3ccc(-c4cnn(C5CC5)c4)cc3)CC2)cc1NC(=O)c1ccc(NC(C)C)nc1 [Compound 254, N-(5-(4-(4-(1-cyclopropyl-1H-pyrazol-4-yl)phenyl)piperidine-1-carbonyl)-2-methylphenyl)-6-(isopropylamino)nicotinamide]
263 | 275 | > 10000 | 107 | 100 | Cc1ccc(C(=O)N2CCC(c3ccc(-c4cnn(C)c4)cc3)CC2)cc1NC(=O)C(C)C [Compound 156, N-(2-methyl-5-(4-(4-(1-methyl-1H-pyrazol-4-yl)phenyl)piperidine-1-carbonyl)phenyl)isobutyramide]
138 | 234 | > 10000 | 34.7 | 107 | Cc1ccc(C(=O)N2CCC(c3ccc(-c4cnn(C)c4)cc3)CC2)cc1NC(=O)c1ccc(F)cc1Cl [Compound 147, 2-chloro-4-fluoro-N-(2-methyl-5-(4-(4-(1-methyl-1H-pyrazol-4-yl)phenyl)piperidine-1-carbonyl)phenyl)benzamide]
295 | 389 | 6310 | 107 | 92 | Cc1ccc(C(=O)N2CCC(c3ccc(-c4cnn(C)c4)cc3)CC2)cc1NC(=O)c1sccc1Cl [Compound 99, 3-chloro-N-(2-methyl-5-(4-(4-(1-methyl-1H-pyrazol-4-yl)phenyl)piperidine-1-carbonyl)phenyl)thiophene-2-carboxamide]
